Assays:
[1] = tested on: human hepatocellular carcinoma cell line (HepG2); assay: MTT tumor cell proliferation assay (HepG2); assay type: cell-based; conditions: HepG2, positive control
Description: The MTT assay was used for measuring the proliferation of the tumor cells. Briefly, human hepatocellular carcinoma cell line (HepG2), human breast adenocarcinoma cell line (MCF7), human lung adenocarcinoma cell line (H1975) and Human melanoma cell line (A375) were seeded at a density of 4×10^4 cells/mL in a volume of 0.1 mL in 96-well plates, respectively. After 24 h, different concentrations of EPCx (1.0, 0.1 and 0.01 mg/ml) were dissolved in the medium was added to each well and incubated for 48 h at 37° C. in a CO2 incubator. 5-Fu (5-fluorouracil) was used as the positive control. After the incubation, 20 μL of MTT solution (5 mg/mL) were added into each well and followed by further incubation for 4-5 h. The culture media were then removed and 100 μL of DMSO was added to each well for 1 h. Absorbance at 570 nm was detected by microplate ELISA reader.

IL-10 [2] = assay: Real-time PCR of IL-10 mRNA in THP-1 cells stressed with LPS; assay type: cell-based; conditions: human monocyte-like cells (THP-1), LPS 10 μg/ml alone
Description: (§1) The capacity of EPS to modulate the inflammatory response was evaluated in vitro in human primary keratinocytes (HEK) and human monocyte-like cells (THP-1) stressed with LPS (lipopolysaccharide). The cells were pretreated with different concentrations of exopolysaccharide-protein complex (1, 0.1 and 0.01 mg/ml) for 24 h and with 10 μg/ml of LPS for 24 h. Controls of HEK and THP-1 cells treated only with the different concentrations of exopolysaccharide-protein complex (1.0, 0.1 and 0.01 mg/ml) were also prepared.
(§2) Expression of mRNA for the cytokines IL-6, IL-8, IL-10 and TNF-α was analyzed by real-time PCR and the NF-κB activation was measured using a luciferase reporter gene assay.
(§3) Real-time PCR: Total RNA was extracted with the RNA Isolation Kit (ThermoFischer Scientific) according to the manufacturer's recommendations. 1 ng of RNA was reverse transcribed into complementary DNA (cDNA) using Superscript One-Step RT-PCR kit with platinum Taq according to the instructions (Invitrogen). Quantification rests on the measure of threshold cycles (CT), which are measured at the beginning of the exponential phase of the reaction and on the normalization of the internal standard curve obtained with the reference gene.

IL-8 [3] = assay: Real-time PCR of IL-8 mRNA in keratinocytes stressed with LPS; assay type: cell-based, human; conditions: LPS 10 μg/ml alone
Description: as §1, §2, §3

TNF-α [4] = assay: Real-time PCR of TNF-α mRNA in THP-1 cells stressed with LPS; assay type: cell-based; conditions: human monocyte-like cells (THP-1), LPS 10 μg/ml alone
Description: as §1, §2, §3

TNF-α [5] = assay: Real-time PCR of TNF-α mRNA in keratinocytes stressed with LPS; assay type: cell-based, human; conditions: LPS 10 μg/ml alone
Description: as §1, §2, §3

IL-10 [6] = assay: Real-time PCR of IL-10 mRNA in keratinocytes stressed with LPS; assay type: cell-based, human; conditions: LPS 10 μg/ml alone
Description: as §1, §2, §3

IL-6 [7] = assay: Real-time PCR of IL-6 mRNA in keratinocytes stressed with LPS; assay type: cell-based, human; conditions: LPS 10 μg/ml alone
Description: as §1, §2, §3

IL-6 [8] = assay: Real-time PCR of IL-6 mRNA in THP-1 cells stressed with LPS; assay type: cell-based; conditions: human monocyte-like cells (THP-1), LPS 10 μg/ml alone
Description: as §1, §2, §3

IL-8 [9] = assay: Real-time PCR of IL-8 mRNA in THP-1 cells stressed with LPS; assay type: cell-based; conditions: human monocyte-like cells (THP-1), LPS 10 μg/ml alone
Description: as §1, §2, §3

Compound	IC50 [1]	Gene expression (mRNA, real-time PCR) IL-10 (IL-10 [2])	Gene expression (mRNA, real-time PCR) IL-8 (IL-8 [3])	Gene expression (mRNA, real-time PCR) TNF-α (TNF-α [4])	Gene expression (mRNA, real-time PCR) TNF-α (TNF-α [5])	Gene expression (mRNA, real-time PCR) IL-10 (IL-10 [6])	Gene expression (mRNA, real-time PCR) IL-6 (IL-6 [7])	Gene expression (mRNA, real-time PCR) IL-6 (IL-6 [8])	Gene expression (mRNA, real-time PCR) IL-8 (IL-8 [9])
O=c1[nH]cc(F)c(=O)[nH]1 [5-fluorouracil]	10 µM								
lipopolysaccharide [LPS]		5	59	67	67	7	62	73	82

Source: patent US11253457B2, “Exopolysaccharide-protein complex, a method of preparing said complex and uses thereof” (INSTITUT UNIV. DE CIÈNCIA I TECNOLOGIA, S.A., priority 2016, dated 2022)
